Laboratory results from paper PMC9252919, “Controlled masking and targeted release of redox-cycling ortho-quinones via a C–C bond-cleaving 1,6-elimination” (Nature Chemistry, 2022).
Read-outs that look alike come from different tables or passages of the source. Each block holds one compound with its values, some of them ahead of it.

Legend:
[1] = Penicillin-G-amidase-mediated kinetic analysis of elimination at physiological pH (HPLC); type: physicochemical; settings: pH 7.4, 37 °C
Procedure: Stocks of 2-phenylacetyl-para-aminobenzyl ketol were made up in DMF at a concentration of 10 mM. For a reaction, 17.5 µl of ketol stock was added to 17.5 µl of a 10 mM stock of internal standard in DMF and 310 µl of PBS at pH 7.4. To initiate a reaction, 5 µl of a suspension of penicillin G amidase (PenG, Sigma-Aldrich enzyme 76427, 5–10 U mg^−1) was added. In control samples 5 µl of PBS was added in place of the enzyme. Test and control samples were then incubated at 37 °C with shaking. At the recorded time points, 20 µl aliquots of the reactions were analysed by HPLC (254 nm, ThermoFisher U3000). HPLC column: Phenomenex Kinetex C18, 5 µm, 50 × 4.6 mm, 100 Å; flow, 1 ml min^−1. Gradient and solvent system for assay with 2-phenylacetyl-PAB-PhQ 21: A = H2O, B = acetonitrile, t = 0–1 min 0% B, t = 1–10 min 0–100% B, t = 10–11 min 0% B. Gradient and solvent system for assay with 2-phenylacetyl-PAB-BL 22 and 2-phenylacetyl-PAB-DN 23: A = H2O + 0.1% formic acid, B = acetonitrile + 0.1% formic acid, t = 0–1 min 0% B, t = 1–10 min 0–40% B, t = 10–16 min 40–50% B, t = 16.1 min 100% B, t = 16.1–18 min 100% B, t = 18–20 min 0% B. Peaks were identified by LC–MS analysis and comparison with pure compounds. Values described represent peak area (mAU × min) divided by peak area of internal standard. Recorded values are averages of three independent reactions and error bars display standard errors of the mean. Fitting was performed using GraphPad Prism 8 software. Rate and half-life measurements were calculated by consumption of intermediate para-aminobenzyl ketol and formation of product quinone.

[2] = 1H NMR kinetic analysis of elimination of PAB-PhQ in MeOD; type: physicochemical
Procedure: Kinetics of the release of PhQ 4 from PAB-PhQ 7 were monitored by ^1H NMR at 25 °C. Analysis was performed in MeOD due to poor solubility of the compound in H2O. To form the active eliminating species, Boc-PAB-PhQ 6 was dissolved in dichloromethane/trifluoroacetic acid 4:1 at 0 °C and stirred for 30 min, upon which the reaction appeared complete by TLC. Product 7 was dried in vacuo before being dissolved in MeOD. The basicity of the solution was altered by addition of triethylamine (drops). pH was estimated using pH paper. pH values are only indicative because analysis is performed in MeOD. Elimination rates were determined from the aromatic region. Kinetics were measured by monitoring the integral of one peak, normalized to the number of protons present (that is, the integral of 1H), divided by the total integral of the aromatic region (δ = 6.2–8.6 ppm, that is, the integral of 12 H). Analysis was performed using Mestrenova v.14.2.0 processing software and rate constants were calculated using GraphPad Prism v.8.0 software.

[3] = pH-rate aqueous kinetic analysis of fragmentation (HPLC); type: physicochemical; settings: for kobs of elimination at pH 6: pH 6, 37 °C; for kobs of elimination at pH 6 / kobs of elimination at pH 3: citrate-phosphate buffer; for kobs of elimination at pH 3: pH 3, 37 °C
Procedure: pH-rate analysis was performed by adaption of the PenG assay. To obtain deprotected para-aminobenzyl ketol species, 2-phenylacetyl protected ketol was dissolved in PBS with 33% DMF to a concentration of 3.3 mM. Then 20 µl of a stock solution of PenG was added to 600 µl of this stock and incubated for 20 min at 37 °C, after which 20 µl of a 100 mM stock of internal standard in DMSO was added. Reactions were then set up immediately. For a reaction, 10 µl of the aminobenzyl ketol/standard stock was added to 190 µl of citrate–phosphate buffer at the specified pH to obtain an aqueous solution containing 1.8% DMSO. Test samples were incubated at 37 °C with shaking. At the recorded time points, 20 µl aliquots of the reactions were analysed by HPLC (254 nm, ThermoFisher U3000). HPLC conditions: column Phenomenex Kinetex C18 5 µm, 50 × 4.6 mm, 100 Å; solvent system A = H2O + 0.1% formic acid, B = acetonitrile + 0.1% formic acid; flow, 1 ml min^−1. Gradient for assay with PAB-PhQ 7: t = 0–1 min 0% B, t = 1–10 min 0–100% B, t = 10–11 min 0% B. Gradient for assay with PAB-BL 10 and PAB-DN 18: t = 0–1 min 0% B, t = 1–10 min 0–40% B, t = 10–16 min 40–50% B, t = 16.1 min 100% B, t = 16.1–18 min 100% B, t = 18–20 min 0% B. Values described represent peak area (mAU × min) divided by peak area of internal standard. Where necessary, peaks were deconvoluted using Origin fitting software. Recorded values are averages of three independent reactions and error bars display standard errors of the mean. Values were fitted using GraphPad Prism software. Rate and half-life measurements were calculated based on consumption of the para-aminobenzyl ketol species.

[4] = In vitro redox-cycling phenol red/horseradish peroxidase reporter assay; settings: phenol red/HRP with DTT, up to 25 μM
Procedure: The in vitro redox-cycling capability of compounds was assessed by phenol red/horseradish peroxidase (HRP) assay by adaption of a previously described protocol. Briefly, stocks were prepared as follows: (1) DTT to a concentration of […] in PBS pH 7.4 buffer; (2) compound stocks in PBS pH 7.4 buffer to 3× the desired concentration by 1,000× dilution of DMSO stocks; (3) a stock of phenol red/HRP detection reagent containing 300 µg ml^−1 phenol red and 180 µg ml^−1 HRP enzyme in PBS pH 7.4 buffer; (4) a stock of 1 M NaOH in water; (5) a stock of 100 µM H2O2 in PBS prepared by addition of a 30% solution of H2O2 in water into 1,000 µl of PBS. Into each well of a 96-well clear flat-bottomed plate was then added 40 µl of compound stock in PBS followed by 40 µl of DTT stock, followed immediately by 40 µl of phenol red/HRP reagent. A positive control with 100 µM H2O2 added in place of compound was included. The plate was incubated in the dark at room temperature for 15 min. Following this, 20 µl of 1 M NaOH was added to each well to terminate the reaction. Absorbance was immediately measured at 610 nm (MiniMax i3x Imager, Molecular Devices). Absorbance of treated wells was normalized to control wells treated with PBS only (zero redox cycling).

recombinant human 5-LO = biological target: T1, recombinant human 5-LO (Homo sapiens, UniProt P09917); experiment: Cell-free activity assay for recombinant human 5-LO; type: biochemical
T1 construct: made in house; host or cells: Escherichia coli BL21
T1 sequence (P09917 1-674): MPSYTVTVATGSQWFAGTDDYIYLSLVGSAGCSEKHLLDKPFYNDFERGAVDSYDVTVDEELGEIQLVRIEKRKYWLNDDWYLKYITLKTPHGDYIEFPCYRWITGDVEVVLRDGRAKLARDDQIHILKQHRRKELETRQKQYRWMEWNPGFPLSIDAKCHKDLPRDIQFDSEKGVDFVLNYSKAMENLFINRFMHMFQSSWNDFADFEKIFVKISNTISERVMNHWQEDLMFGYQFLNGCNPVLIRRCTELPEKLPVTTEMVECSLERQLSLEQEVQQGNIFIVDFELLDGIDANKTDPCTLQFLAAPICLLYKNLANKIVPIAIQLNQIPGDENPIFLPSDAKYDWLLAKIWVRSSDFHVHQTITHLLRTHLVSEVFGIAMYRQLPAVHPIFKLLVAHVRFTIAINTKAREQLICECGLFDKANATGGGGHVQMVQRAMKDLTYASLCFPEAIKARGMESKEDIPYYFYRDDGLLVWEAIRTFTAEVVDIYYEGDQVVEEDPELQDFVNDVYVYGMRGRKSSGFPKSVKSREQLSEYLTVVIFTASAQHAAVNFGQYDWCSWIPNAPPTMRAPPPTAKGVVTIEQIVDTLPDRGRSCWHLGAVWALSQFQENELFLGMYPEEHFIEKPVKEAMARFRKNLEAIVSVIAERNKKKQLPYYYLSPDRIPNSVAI
Procedure: Escherichia coli (BL21) was transformed with pT3-5-LO plasmid, and recombinant 5-LO protein was expressed at 30 °C as described. Cells were lysed in 50 mM triethanolamine/HCl pH 8.0, 5 mM EDTA, 1 mM phenylmethanesulfonyl fluoride, soybean trypsin inhibitor (60 μg ml^−1) and lysozyme (1 mg ml^−1), homogenized by sonication (3 × 15 s) and centrifuged at 40,000g for 20 min at 4 °C. The 40,000g supernatant (S40) was applied to an ATP–agarose column to partially purify 5-LO as described. Aliquots of semipurified 5-LO (0.5 μg) were diluted with 1 ml ice-cold PBS containing 1 mM EDTA. Samples were preincubated with the test compound or vehicle (0.1% DMSO) with or without 1 mM DTT, as indicated. After 10 min at 4 °C, samples were prewarmed for 30 s at 37 °C, and 2 mM CaCl2 plus 20 μM arachidonic acid was added to start the formation of 5-LO products. After 10 min, the reaction was stopped by addition of 1 volume of ice-cold methanol, and the formed 5-LO products were analysed by reverse-phase HPLC as described. 5-LO products include the all-trans isomers of LTB4 (trLTB4 isomers) and 5(S)-hydroperoxy-6-trans-8,11,14-cis-eicosatetraenoic acid and its corresponding alcohol 5(S)-hydroxy-6-trans-8,11,14-cis-eicosatetraenoic acid.

ovine blood = experiment: Methaemoglobin analysis in ovine blood; parameters: species or system sheep; settings: in vitro ovine blood model, 1 h incubation
Procedure: Defibrinated Oxoid sheep’s blood (ThermoScientific) was diluted to a 5% v/v suspension in PBS pH 7.4. In a 96-well microtitre plate, 150 µl of blood suspension was added to 50 µl of serially diluted compound in PBS containing a 4× stock of each compound of interest. Serial dilution of compounds from DMSO stocks into PBS was performed to achieve an in-plate DMSO concentration of 0.1%. PBS buffer alone was used as a negative control. The plate was incubated for the specified time at 37 °C. The plate was then centrifuged at 3,500 r.p.m. for 5 min. The supernatant was removed and cells lysed by resuspension in 100 µl of a solution of Triton-X-100 (1%) in PBS. Following this, 80 µl of lysed cell contents were transferred to a second microtitre plate for ultraviolet measurement. Ultraviolet absorbance was measured immediately at 630 nm (MiniMax i3x Imager, Molecular Devices). Methaemoglobin increase was determined by A630−A6300/A6300×100 , where A630 is the absorbance of the test well at 630 nm, and A6300 is the absorbance of the negative control at 630 nm.

AML cell line MOLM-13 = experiment: Viability assay with small-molecule prodrugs, MOLM-13; type: cell-based; settings: 5 µM, 24 h
Procedure: For assays assessing cytotoxicity of β-lapachone versus small-molecule prodrugs, antibodies and ADCs, suspension cells were plated into 24-well plates at a density of 2.5 × 10^5 cells ml^−1 in 240 µl. Stocks of ADC or antibody in PBS were normalized to 12.5 µM. Serial dilutions of compound were made up in PBS. Then, 60 µl of each stock of either PBS or compound in PBS was added to the cells to achieve the desired final concentration. After the specified incubation time, toxicity was assessed by counting of live cells using the trypan blue exclusion method with a Countess II Automated Cell Counter (ThermoFisher Scientific) according to the manufacturer’s instructions. Cell viability was determined by dividing the average live cell number of treated wells by the average live cell number for control wells treated with PBS only. IC50 values were calculated using GraphPad Prism software. Note: for the assay performed over 96 h, 5% human serum was added to media instead of 10% fetal bovine serum, to limit non-specific antibody internalisation. This had little effect on ADC toxicity.

[5] = 25 °C, moderately acidic methanolic solution

- kobs, formation of PhQ 4 following addition of penicillin G amidase to 21 [1]: 1.15 ± 0.66 × 10^–5 s^–1
- stability without added enzyme ([1]; no penicillin G amidase): stable
Compound: 2-phenylacetyl-PAB-PhQ [Compound 21]

- kobs, rate of consumption of 7 [2, 5]: 6.18 ± 0.12 × 10^–5 s^–1
- kobs, rate of formation of product 4 from 7 [2, 5]: 6.55 ± 0.22 × 10^–5 s^–1
- time to complete release of 4 from 7 [2, 5]: ≤ 20 h
- completeness of release of 4 from 7 ([2]; basic conditions): not complete after 40 h
- kobs, appearance of 4 from 7 ([2]; basic conditions, MeOD with triethylamine): 1.16 ± 0.18 × 10^–6 s^–1
- kobs, elimination of 7 ([1]; 7 generated enzymatically from 21): 9.72 ± 2.88 × 10^–6 s^–1
- pH at which elimination rate peaks ([3]; 37 °C): 5–6
- kobs of elimination at pH 6 [3]: 1.7 ± 0.3 × 10^–5 s^–1
Compound: Nc1ccc(CC2(O)C(=O)c3ccccc3-c3ccccc32)cc1 (stereo not drawn) [Compound 7, para-aminobenzyl phenanthrene-ketol]

- pH at which elimination rate peaks ([3]; 37 °C): 3
- kobs of elimination at pH 3 [3]: 1.1 ± 0.1 × 10^–5 s^–1
- kobs of elimination at pH 6 [3]: 2.1 ± 0.8 × 10^–7 s^–1
- elimination resulting in formation of 1 ([3]; pH ≥6, within 72 h, 37 °C): Negligible
Compound: CC1(C)CCC2=C(O1)c1ccccc1C(O)(Cc1ccc(N)cc1)C2=O (stereo not drawn) [Compound 10]

- kobs of elimination at pH 3 [3]: 9.1 ± 0.2 × 10^–6 s^–1
- kobs of elimination at pH 6 [3]: 7.4 ± 1.1 × 10^–7 s^–1
Compound: CC1OC2=C(C(=O)C(O)(Cc3ccc(N)cc3)c3ccccc32)C1(C)C (stereo not drawn) [Compound 18]

- in vitro redox activity [4]: no measurable redox activity
- IC50 (recombinant human 5-LO; with DTT (1 mM), read-out: IC50, 5-LO inhibition with DTT): 11.5 ± 2.2 µM
- IC50 (recombinant human 5-LO; without DTT, read-out: IC50, 5-LO inhibition without DTT): 11.3 ± 1.1 µM
- methaemoglobin formation (ovine blood): did not occur
Compound: CC1(C)CCc2c3c(c4ccccc4c2O1)OCCO3 [Compound 25]

Compound: CC(=O)Oc1c2c(c3ccccc3c1OC(C)=O)OC(C)(C)CC2 [Compound 29]
- toxicity to MOLM-13 at 5 µM (AML cell line MOLM-13): complete cell death
